Experimental data published in the supplement of paper PMC8149375.

Tests used:
Details in all cases: treatment: drug alone; 5 days
769-P [1] = test: GI50, drug alone; higher = less potent
Method: (§1)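 Primary HTS: 8 RCC cell lines treated with 8 doses (up to 10 uM) of each library drug alone for 5 days; viability read by CellTiter-Glo and normalised to DMSO. GI50 was fitted with XLfit (4-parameter), AUC is the area under the dose-response curve, and minimum viability is the lowest fraction of DMSO viability across doses.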

ACHN [2] = test: GI50, drug alone; higher = less potent
Method: as §1

SN12C [3] = test: GI50, drug alone; higher = less potent
Method: as §1

UO-31 [4] = test: GI50, drug alone; higher = less potent
Method: as §1

786-O [5] = test: GI50, drug alone; higher = less potent
Method: as §1

CAKI-1 [6] = test: GI50, drug alone; higher = less potent
Method: as §1

TK-10 [7] = test: GI50, drug alone; higher = less potent
Method: as §1

A498 [8] = test: GI50, drug alone; higher = less potent
Method: as §1

769-P [9] = test: minimum viability across doses, drug alone, relative to DMSO (fraction); higher = less growth inhibition
Method: as §1

ACHN [10] = test: as above
Method: as §1

SN12C [11] = test: as above
Method: as §1

UO-31 [12] = test: as above
Method: as §1

786-O [13] = test: as above
Method: as §1

CAKI-1 [14] = test: as above
Method: as §1

TK-10 [15] = test: as above
Method: as §1

A498 [16] = test: as above
Method: as §1

769-P [17] = test: AUC of dose-response viability curve, drug alone (arbitrary (AUC of normalised viability)); higher = less growth inhibition
Method: as §1

ACHN [18] = test: as above
Method: as §1

SN12C [19] = test: as above
Method: as §1

UO-31 [20] = test: as above
Method: as §1

786-O [21] = test: as above
Method: as §1

CAKI-1 [22] = test: as above
Method: as §1

TK-10 [23] = test: as above
Method: as §1

A498 [24] = test: as above
Method: as §1

Structure (SMILES) | GI50, drug alone (ACHN [2]) [µM] | GI50, drug alone (786-O [5]) [µM] | GI50, drug alone (769-P [1]) [µM] | GI50, drug alone (SN12C [3]) [µM] | GI50, drug alone (UO-31 [4]) [µM] | GI50, drug alone (CAKI-1 [6]) [µM] | GI50, drug alone (TK-10 [7]) [µM] | GI50, drug alone (A498 [8]) [µM] | minimum viability across doses (769-P [9]) | minimum viability across doses (ACHN [10]) | minimum viability across doses (SN12C [11]) | minimum viability across doses (UO-31 [12]) | minimum viability across doses (786-O [13]) | minimum viability across doses (CAKI-1 [14]) | minimum viability across doses (TK-10 [15]) | minimum viability across doses (A498 [16]) | AUC of dose-response viability curve (769-P [17]) | AUC of dose-response viability curve (ACHN [18]) | AUC of dose-response viability curve (SN12C [19]) | AUC of dose-response viability curve (UO-31 [20]) | AUC of dose-response viability curve (786-O [21]) | AUC of dose-response viability curve (CAKI-1 [22]) | AUC of dose-response viability curve (TK-10 [23]) | AUC of dose-response viability curve (A498 [24])
Cl.Cl.Clc1ccc(Nc2nnc(Cc3ccncc3)c3ccccc23)cc1 [Vatalanib dihydrochloride (PTK787)] | > 10 | > 10 | > 10 | > 10 | > 10 | > 10 | > 10 | > 10 | 1.01 | 0.587 | 0.901 | 1.11 | 0.692 | 0.807 | 0.887 | 0.933 | 3.69 | 2.59 | 3.4 | 4.41 | 3.3 | 3.48 | 3.41 | 4.65
CCCS(=O)(=O)Nc1ccc(F)c(C(=O)c2c[nH]c3ncc(-c4ccc(Cl)cc4)cc23)c1F [Vemurafenib (PLX4032)] | > 10 | 5.39 | > 10 | > 10 | > 10 | > 10 | > 10 | > 10 | 0.884 | 0.634 | 0.764 | 0.7 | 0.271 | 0.76 | 0.647 | 0.93 | 2.31 | 3.08 | 3.05 | 3.42 | 2.45 | 3.43 | 3.05 | 3.73
COc1cc2ncnc(Nc3ccc(O)c(Br)c3)c2cc1OC [WHI-P154] | 1.51 | > 10 | > 10 | > 10 | > 10 | 6.6 | 2.48 | > 10 | 0.553 | 0.27 | 0.789 | 1.1 | 0.594 | 0.351 | 0.435 | 0.955 | 3.27 | 2.49 | 3.48 | 6.61 | 3.09 | 3.22 | 2.33 | 5.3
COC[C@H]1OC(=O)c2coc3c2[C@@]1(C)C1=C(C3=O)[C@@H]2CCC(=O)[C@@]2(C)C[C@@H]1OC(C)=O [Wortmannin] | 0.0981 | 0.0493 | > 10 | 0.0835 | > 10 | 2.42 | > 10 | 0.0833 | 0.55 | 0.426 | 0.387 | 0.643 | 0.00957 | 0.301 | 0.725 | 0.421 | 3.15 | 2.78 | 2.78 | 2.58 | 1.99 | 2.45 | 3.1 | 3.03
COc1cc2nccc(Oc3ccc(NC(=O)C4(C(=O)Nc5ccc(F)cc5)CC4)cc3)c2cc1OC [XL-184 free base (Cabozantinib)] | 1.34 | 5.69 | > 10 | 5.27 | > 10 | 4.71 | 4.14 | > 10 | 0.557 | 0.221 | 0.279 | 0.675 | 0.222 | 0.116 | 0.102 | 0.805 | 3.39 | 2.25 | 2.92 | 3.88 | 3.06 | 3.2 | 2.91 | 3.95
O=C(O)c1ccc2c(c1)nc(Nc1cccc(Cl)c1)c1ccncc12 [cx-4945 (Silmitasertib)] | 8.87 | 5.23 | > 10 | > 10 | > 10 | 3.97 | > 10 | > 10 | 0.679 | 0.238 | 0.681 | 0.541 | 0.259 | 0.0814 | 0.634 | 0.956 | 3.12 | 3.2 | 3.06 | 4.43 | 2.33 | 3.07 | 3.01 | 4.21

The next lines start with results.

GI50, drug alone (ACHN [2]) [µM] | GI50, drug alone (786-O [5]) [µM] | Structure (SMILES) | GI50, drug alone (769-P [1]) [µM] | GI50, drug alone (SN12C [3]) [µM] | GI50, drug alone (UO-31 [4]) [µM] | GI50, drug alone (CAKI-1 [6]) [µM] | GI50, drug alone (TK-10 [7]) [µM] | GI50, drug alone (A498 [8]) [µM] | minimum viability across doses (769-P [9]) | minimum viability across doses (ACHN [10]) | minimum viability across doses (SN12C [11]) | minimum viability across doses (UO-31 [12]) | minimum viability across doses (786-O [13]) | minimum viability across doses (CAKI-1 [14]) | minimum viability across doses (TK-10 [15]) | minimum viability across doses (A498 [16]) | AUC of dose-response viability curve (769-P [17]) | AUC of dose-response viability curve (ACHN [18]) | AUC of dose-response viability curve (SN12C [19]) | AUC of dose-response viability curve (UO-31 [20]) | AUC of dose-response viability curve (786-O [21]) | AUC of dose-response viability curve (CAKI-1 [22]) | AUC of dose-response viability curve (TK-10 [23]) | AUC of dose-response viability curve (A498 [24])
0.689 | 0.372 | c1cncc(CN2CCC(n3ncc4c(N5CCOCC5)nc(-c5ccc6[nH]ccc6c5)nc43)CC2)c1 [WAY-600] | 2.04 | 1.9 | 1.15 | 0.624 | 0.744 | 5.84 | 0.0444 | 0.0599 | 0.164 | 0.00348 | 0.00124 | 0.0276 | 0.0825 | 0.0996 | 2.73 | 2.32 | 2.51 | 3.04 | 1.79 | 2.23 | 2.23 | 4.54
6.7 | 4.47 | C[C@H](NC(=O)/C(C#N)=C/c1cccc(Br)n1)c1ccccc1 [WP1066] | 5.25 | > 10 | 7.86 | 8.92 | > 10 | > 10 | 0.0246 | 0.13 | 0.581 | 0.00632 | 0.015 | 0.371 | 0.932 | 0.986 | 3.44 | 3.23 | 3.23 | 4.12 | 3.07 | 3.38 | 3.62 | 4.19
4.37 | 1.54 | CCC[C@H](NC(=O)/C(C#N)=C/c1cccc(Br)n1)c1ccccc1 [WP1130] | 4.25 | 4.46 | 8.04 | 4.52 | 4.1 | 5.12 | 0.0147 | 0.00429 | 0.0172 | 0.0144 | 0.00591 | 0.0261 | 0.0704 | 0.0682 | 3.17 | 3.26 | 2.97 | 3.72 | 2.24 | 3.18 | 2.56 | 3.33
0.611 | 0.476 | COC(=O)Nc1ccc(-c2nc(N3CCOCC3)c3cnn(C4CCN(C(=O)OC)CC4)c3n2)cc1 [WYE-354] | 2.27 | 1.89 | 2.57 | 1.26 | 1.57 | 6.59 | 0.165 | 0.167 | 0.274 | 0.0127 | 0.346 | 0.127 | 0.293 | 0.409 | 2.75 | 2.21 | 2.54 | 3.63 | 1.9 | 2.49 | 2.35 | 3.73
0.551 | 1.48 | COC(=O)Nc1ccc(-c2nc(N3CCOCC3)c3cnn(C4CCN(Cc5cccnc5)CC4)c3n2)cc1 [WYE-687] | 1.59 | 0.996 | 0.581 | 0.577 | 0.501 | 4.61 | 0.184 | 0.0636 | 0.141 | 0.00593 | 0.441 | 0.075 | 0.0981 | 0.351 | 2.67 | 2.34 | 2.45 | 2.83 | 2.92 | 2.23 | 2.1 | 3.76
0.496 | 1.45 | C=CC(=O)Nc1cccc(Oc2nc(Nc3ccc(N4CCN(C)CC4)cc3)ncc2Cl)c1 [WZ3146] | 1.9 | 2.34 | 2.6 | 0.958 | 0.504 | 9.89 | 0.146 | 0.0569 | 0.0769 | 0.0177 | 0.046 | 0.0135 | 0.0399 | 0.452 | 2.71 | 2.34 | 2.85 | 3.76 | 2.27 | 2.62 | 2.07 | 3.49
0.845 | > 10 | C=CC(=O)Nc1cccc(Oc2nc(Nc3ccc(N4CCN(C)CC4)cc3OC)ncc2Cl)c1 [WZ4002] | > 10 | 4.51 | 8.03 | 3.38 | 1.19 | > 10 | 0.576 | 0.0645 | 0.151 | 0.0165 | 0.547 | 0.385 | 0.0574 | 0.796 | 2.97 | 2.38 | 2.87 | 3.99 | 2.59 | 2.96 | 2.42 | 4.01
1.28 | 2.91 | C=CC(=O)Nc1cccc(Sc2nc(Nc3ccc(N4CCN(C)CC4)cc3)ncc2Cl)c1 [WZ8040] | 2.96 | 4.06 | 8.21 | 2.31 | 2.09 | 9.25 | 0.0235 | 0.0112 | 0.00541 | 0.0196 | 0.00441 | 0.00227 | 0.024 | 0.282 | 2.81 | 2.45 | 2.85 | 3.39 | 2.46 | 2.51 | 2.42 | 3.77
> 10 | > 10 | Cc1ccc(S(=O)(=O)Nc2nc3ccccc3nc2Nc2ccc3nsnc3c2)cc1 [XL147] | > 10 | > 10 | > 10 | > 10 | > 10 | > 10 | 0.884 | 0.811 | 0.92 | 1.13 | 0.768 | 1.03 | 0.902 | 0.933 | 3.3 | 3.19 | 3.52 | 4.38 | 3.2 | 3.82 | 3.52 | 3.61
0.0133 | > 10 | COCC[n+]1c2c(n(Cc3cnccn3)c1C)C(=O)c1ccccc1C2=O [YM155] | 0.0145 | 0.0113 | 0.0256 | 0.0125 | 0.0277 | 0.0124 | 0.00858 | 0.00196 | 0.00269 | 0.00519 | 0.00377 | 0.00636 | 0.0341 | 0.0106 | 0.736 | 0.648 | 0.567 | 0.852 | 0.165 | 0.655 | 1.14 | 0.68
0.699 | 0.299 | FC(F)c1nc2ccccc2n1-c1nc(N2CCOCC2)nc(N2CCOCC2)n1 [ZSTK474] | 1.09 | 1.23 | 1.45 | 0.431 | 0.547 | 2.17 | 0.127 | 0.0879 | 0.172 | 0.0171 | 0.0739 | 0.109 | 0.158 | 0.0458 | 2.38 | 2.36 | 2.48 | 2.73 | 1.95 | 2.12 | 2.17 | 2.84
